Reference: doi:10.1101/161430v2 (biorxiv, 2019)

Key:
[1] = biological target: T1, human carboxylesterase 2 (CES2, hCES2) (Homo sapiens, UniProt O00748); assay: biochemical
T1 sequence (O00748 27-559): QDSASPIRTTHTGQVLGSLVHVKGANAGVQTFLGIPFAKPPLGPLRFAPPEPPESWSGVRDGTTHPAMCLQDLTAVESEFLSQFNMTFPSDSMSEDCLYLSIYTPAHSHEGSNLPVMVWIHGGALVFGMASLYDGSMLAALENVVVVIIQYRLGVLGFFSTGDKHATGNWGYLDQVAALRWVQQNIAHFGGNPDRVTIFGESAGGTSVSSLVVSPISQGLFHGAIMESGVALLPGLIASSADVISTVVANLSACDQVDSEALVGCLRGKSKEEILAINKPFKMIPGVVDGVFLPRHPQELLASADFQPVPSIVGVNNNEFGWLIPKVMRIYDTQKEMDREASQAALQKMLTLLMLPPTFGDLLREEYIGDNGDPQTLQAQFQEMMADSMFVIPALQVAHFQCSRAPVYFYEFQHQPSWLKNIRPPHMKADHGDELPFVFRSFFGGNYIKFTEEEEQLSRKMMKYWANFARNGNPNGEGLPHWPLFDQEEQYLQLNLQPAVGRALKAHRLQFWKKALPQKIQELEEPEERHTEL

[2] = biological target: T2, human BChE (butyrylcholinesterase, BuChE) (Homo sapiens, UniProt P06276); assay: Ellman assay, […] nm; assay type: biochemical
T2 sequence (P06276 29-602): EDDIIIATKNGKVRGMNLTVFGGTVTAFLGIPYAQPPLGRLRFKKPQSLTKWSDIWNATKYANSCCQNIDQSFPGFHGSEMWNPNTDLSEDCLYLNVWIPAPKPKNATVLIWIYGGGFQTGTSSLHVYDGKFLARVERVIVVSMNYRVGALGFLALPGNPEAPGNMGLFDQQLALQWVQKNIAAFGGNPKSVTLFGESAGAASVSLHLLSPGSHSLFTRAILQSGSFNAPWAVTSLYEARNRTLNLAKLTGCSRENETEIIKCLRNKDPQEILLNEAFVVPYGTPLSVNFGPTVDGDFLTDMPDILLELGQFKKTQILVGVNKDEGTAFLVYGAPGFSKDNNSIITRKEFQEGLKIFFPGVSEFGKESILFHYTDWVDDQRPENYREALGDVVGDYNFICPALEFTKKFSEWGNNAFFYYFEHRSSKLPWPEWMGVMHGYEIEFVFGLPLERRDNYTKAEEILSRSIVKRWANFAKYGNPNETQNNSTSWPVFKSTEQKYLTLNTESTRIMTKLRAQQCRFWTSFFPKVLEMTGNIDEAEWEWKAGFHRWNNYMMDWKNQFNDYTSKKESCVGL

[3] = biological target: T3, human AChE (acetylcholinesterase) (Homo sapiens, UniProt P22303); assay: Ellman assay, […] nm; assay type: biochemical
T3 sequence (P22303 32-614): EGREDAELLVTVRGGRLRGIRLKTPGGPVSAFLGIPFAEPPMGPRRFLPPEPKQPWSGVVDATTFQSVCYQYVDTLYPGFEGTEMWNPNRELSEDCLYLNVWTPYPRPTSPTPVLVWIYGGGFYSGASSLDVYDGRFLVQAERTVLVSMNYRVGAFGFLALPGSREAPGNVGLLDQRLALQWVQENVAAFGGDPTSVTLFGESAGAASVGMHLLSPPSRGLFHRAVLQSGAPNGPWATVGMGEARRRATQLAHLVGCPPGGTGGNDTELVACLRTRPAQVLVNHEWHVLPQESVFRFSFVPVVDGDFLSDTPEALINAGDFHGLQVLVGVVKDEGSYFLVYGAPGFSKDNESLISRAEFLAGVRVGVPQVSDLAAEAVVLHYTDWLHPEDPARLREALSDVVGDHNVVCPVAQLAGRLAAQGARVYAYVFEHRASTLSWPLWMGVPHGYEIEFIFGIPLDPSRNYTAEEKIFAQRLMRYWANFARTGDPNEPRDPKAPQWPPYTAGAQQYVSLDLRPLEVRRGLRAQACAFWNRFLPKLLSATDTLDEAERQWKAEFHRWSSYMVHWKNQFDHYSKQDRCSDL

[4] = test system: HT29; assay: in vitro; settings: read-out: EC50 viability, 3.10; human, 48 h
[5] = in vitro; settings: human, EC50 viability, 3.10
[6] = test system: HTC116; assay: in vitro; settings: read-out: EC50 viability, 3.10; human, 48 h
[7] = test system: HeLa; assay: in vitro; settings: read-out: EC50 viability, 3.10; human, 48 h
[8] = test system: MDA-MB-231; assay: in vitro; settings: read-out: EC50 viability, 3.10; human, 48 h
[9] = test system: Colo205; assay: in vitro; settings: read-out: EC50 viability, 3.10; human, 48 h
[10] = test system: H23; assay: in vitro; settings: read-out: EC50 viability, 3.10; human, 48 h
[11] = biological target: T4, human carboxylesterase 1 (CES1, hCES1) (Homo sapiens, UniProt P23141); assay: competition with 4-nitrophenyl acetate, […] nm; assay type: biochemical
T4 sequence (P23141 18-567): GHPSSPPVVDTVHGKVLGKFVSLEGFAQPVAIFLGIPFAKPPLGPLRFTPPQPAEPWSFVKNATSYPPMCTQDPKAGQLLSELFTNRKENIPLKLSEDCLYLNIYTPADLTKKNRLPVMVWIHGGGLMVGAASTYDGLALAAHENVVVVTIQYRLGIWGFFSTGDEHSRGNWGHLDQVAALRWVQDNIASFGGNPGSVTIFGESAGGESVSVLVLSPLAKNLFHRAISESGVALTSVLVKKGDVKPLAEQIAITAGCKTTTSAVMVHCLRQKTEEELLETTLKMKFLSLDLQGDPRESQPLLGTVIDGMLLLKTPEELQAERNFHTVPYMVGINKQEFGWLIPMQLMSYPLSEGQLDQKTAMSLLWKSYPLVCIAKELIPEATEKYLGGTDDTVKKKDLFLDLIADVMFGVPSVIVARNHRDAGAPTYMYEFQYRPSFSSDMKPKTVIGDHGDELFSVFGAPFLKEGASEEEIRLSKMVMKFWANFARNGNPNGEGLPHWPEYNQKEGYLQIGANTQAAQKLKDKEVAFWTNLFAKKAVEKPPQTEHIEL

[12] = in vitro; settings: human
[13] = test system: PC3; assay: in vitro; settings: read-out: EC50 cmpd 3.10; human, 48 h
[14] = biological target: T1, human carboxylesterase 2 (CES2, hCES2); assay: competition with 4-nitrophenyl acetate, […] nm; assay type: biochemical
[15] = biological target: T4, human carboxylesterase 1 (CES1, hCES1); assay: biochemical
[16] = biological target: T2, human BChE (butyrylcholinesterase, BuChE); assay: biochemical
[17] = biological target: T3, human AChE (acetylcholinesterase); assay: biochemical

SMILES | IC50 [1] [µM] | Ki [2] [µM] | Ki [3] [µM] | CC50 [4] [µM] | CC50 at 48 h [5] [µM] | CC50 [6] [µM] | CC50 [7] [µM] | CC50 [8] [µM] | CC50 [9] [µM] | CC50 [10] [µM] | Ki [11] [µM] | CC50 at 48 h [12] [µM] | CC50 [13] [µM] | Ki [14] [µM] | IC50 [15] [µM] | IC50 [16] [µM] | IC50 [17] [µM] | CC50 at 48 h ([12]; 263t cells) [µM]
OB(O)c1cc(Br)cc(Oc2ccccc2)c1 [3.10, compound 3.10] | 0.0038 | 0.094 | 9.3 | > 100 | > 100 | > 100 | > 100 | > 100 | > 100 | > 100 | 0.0011 | > 100 | > 100 | 0.0021 | 0.002 | 0.49 | 23 | 
OB(O)c1cc(Br)cc(N2CCCC2)c1 [compound 3] | 0.037 | 0.26 | 25 |  |  |  |  |  |  |  | 0.0041 |  |  | 0.021 | 0.0074 |  | 61 | > 100
